Where no end group is shown, it is not given here. [ ]: non-standard residue; d: D form. dPhe(F5) = N[C@H](Cc1c(F)c(F)c(F)c(F)c1F)C(=O)O; dBpa = N[C@H](Cc1ccc(C(=O)c2ccccc2)cc1)C(=O)O; dCha = N[C@H](CC1CCCCC1)C(=O)O
Experiments:
calmodulin = calmodulin (Homo sapiens, UniProt P0DP23); conditions: cited from earlier work
cancer cells [1] = conditions: cited from earlier work
cancer cells [2] = conditions: shorter exposure and lower doses of CBP501 than required for G2 checkpoint abrogation; cited from earlier work
NCI-H1155 = experiment: CDDP-enhancing activity of CBP501, cell cycle distribution by flow-cytometry; type: cell-based, Human; conditions: 1 h co-exposure with CDDP
Protocol: (§1) Cell culture and reagents. Human NSCLC cell lines were cultured in a variety of media, each supplemented with 10% fetal bovine serum (Invitrogen, San Diego, CA) at 37° C. with 5% CO2/air. The media used was RPMI1640 (Sigma-Aldrich, St. Louis, Mo.) for NCI-H1755, NCI-H2030, NCI-H1437, NCI-H2122, NCI-H2172, NCI-H2228, NCI-H1563, NCI-H1944, NCI-H1993, NCI-H1734, NCI-H1568, NCI-H2444, NCI-H2291, NCI-H2347, NCI-H1838, NCI-H1299, HCC827, NCI-H1975, NCI-H1155, NCI-H522 and NCI-H1703; RPMI1640 supplemented with 2mM L-glutamine (Invitrogen) for NCI-H727; RPMI1640 supplemented with 4.5 g/L D-glucose (Sigma-Aldrich), 10 mM HEPES (Sigma-Aldrich) and 1 mM sodium pyruvate (Sigma-Aldrich) for NCI-H358, NCI-H520, NCI-H23, NCI-H647 and NCI-H838; Ham's F12K (Sigma-Aldrich) for A549. CDDP was purchased from Sigma-Aldrich. Sulforaphane (SFN) was purchased from Sigma-Aldrich. All NSCLC cell lines were purchased from ATCC and STR analysis had been performed by ATCC to authenticate the identity of each cell line. All cell lines were used within three months after thawing.
(§2) Cell cycle analysis. Cells were plated in 24-well plates and incubated for 24 hours. The cells were treated with or without CDDP plus or minus CBP501 at the indicated concentration for the indicated times. The cells were harvested and stained with Krishan's solution (0.1% sodium citrate, 50 μg/ml propidium iodide, 20 μg/ml RNase A, 0.5% NP-40). Stained cells were analyzed by FACSCalibur (Becton Dickinson, Franklin Lakes, N.J.) using CELLQuest software (Becton Dickinson).
(§3) Here, the change in the cell cycle distribution, as indicated by flow-cytometry, was used to estimate the sensitivity of NSCLC cell lines to CBP501-enhanced cytotoxicity to CDDP. Such changes were monitored in cells treated with CDDP in the presence or absence of CBP501. The utility of this analysis for assessing the effectiveness of anti-cancer therapy is based on the absence of functioning G1/S checkpoint regulation in the cell cycle of many types of cancer cells (14). Lack of a functional G1/S checkpoint leads to an accumulation of cancer cells in G2/M phase upon their exposure to DNA-damaging anticancer agents (14, 15).
(§4) To assess the CDDP-enhancing activity of CBP501, one can examine either of two dose-response curves in which the X-axis indicates the dose of CDDP and Y-axis indicates either the number of cells in subG1 or in G2/M. The transition and peak in either dose-response curve will shift to the left in the presence of CBP501 for CBP501-sensitive cells, indicating the enhanced ability of CDDP to change the cell cycle distribution. […] Using this criterion based on CBP501's ability to shift the CDDP-induced subG1 or G2/M dose-response curve, twelve NSCLC cell lines were classified as being either, CBP501-sensitive or CBP501-insensitive. Cell lines that shifted the curve two fold or more were classified as CBP501 sensitive cells and those that shifted the curve less than two fold were classified as CBP501 insensitive (Table 1). Classification of CBP501 sensitivity in NSCLC cell lines.
(§5) Although the expression of Nrf2 or its several downstream transcription targets may possibly predict resistance to CBP501, the general reliability of these predictive markers for CBP501-sensitivity remained to be established. The combination effect of CBP501 and CDDP in sixteen additional NSCLC cell lines, classifying each as CBP501 sensitive or insensitive by the prior criteria was analyzed (Table 2). Classification of CBP501 sensitivity in additional NSCLC cell lines.

NCI-H1993 = experiment: as above; type: cell-based, Human; conditions: 1 h co-exposure with CDDP, shift of subG1 or G2/M dose-response curve
Protocol: as §1, §2, §3, §4, §5

NCI-H23 = experiment: as above; type: cell-based, Human; conditions: 1 h co-exposure with CDDP, shift of subG1 or G2/M dose-response curve
Protocol: as §1, §2, §3, §4, §5

NCI-H647 = experiment: as above; type: cell-based, Human; conditions: 1 h co-exposure with CDDP, shift of subG1 or G2/M dose-response curve
Protocol: as §1, §2, §3, §4, §5

NCI-H1299 = experiment: as above; type: cell-based, Human; conditions: 1 h co-exposure with CDDP, shift of subG1 or G2/M dose-response curve
Protocol: as §1, §2, §3, §4, §5

NCI-H358 = experiment: as above; type: cell-based, Human; conditions: 1 h co-exposure with CDDP, shift of subG1 or G2/M dose-response curve
Protocol: as §1, §2, §3, §4, §5

NCI-H1563 = experiment: as above; type: cell-based, Human; conditions: 1 h co-exposure with CDDP
Protocol: as §1, §2, §3, §4, §5

HCC827 = experiment: as above; type: cell-based, Human; conditions: 1 h co-exposure with CDDP
Protocol: as §1, §2, §3, §4, §5

NCI-H520 = experiment: as above; type: cell-based, Human; conditions: 1 h co-exposure with CDDP
Protocol: as §1, §2, §3, §4, §5

NCI-H727 = experiment: as above; type: cell-based, Human; conditions: 1 h co-exposure with CDDP
Protocol: as §1, §2, §3, §4, §5

NCI-H1734 = experiment: as above; type: cell-based, Human; conditions: 1 h co-exposure with CDDP
Protocol: as §1, §2, §3, §4, §5

NCI-H522 = experiment: as above; type: cell-based, Human; conditions: 1 h co-exposure with CDDP
Protocol: as §1, §2, §3, §4, §5

A549 = experiment: as above; type: cell-based, Human; conditions: 1 h co-exposure with CDDP, shift of subG1 or G2/M dose-response curve
Protocol: as §1, §2, §3, §4, §5

NCI-H1755 = experiment: as above; type: cell-based, Human; conditions: 1 h co-exposure with CDDP
Protocol: as §1, §2, §3, §4, §5

NCI-H1975 = experiment: as above; type: cell-based, Human; conditions: 1 h co-exposure with CDDP
Protocol: as §1, §2, §3, §4, §5

[3] = tested on: platinum-resistant ovarian carcinoma and MPM; conditions: cited from earlier work
[4] = shift of subG1 or G2/M dose-response curve

(d-Bpa)(d-Ser)(d-Trp)(d-Ser)(d-Phe-2,3,4,5,6-F)(d-Cha)(d-Arg)(d-Arg)(d-Arg)(d-Gln)(d-Arg)(d-Arg) ([dBpa][dS][dW][dS][dPhe(F5)][dCha][dR][dR][dR][dQ][dR][dR]) [CBP501, anti-cancer drug candidate; calmodulin modulation and G2 checkpoint abrogation]
Interaction with calmodulin (calmodulin): direct interaction
Phosphorylation of CDC25C at Ser216 (cancer cells [1]): attenuates phosphorylation of CDC25C at Ser216
Accumulation of cancer cells at G2/M (cancer cells [1]; lengthy combined exposure with CDDP or bleomycin (BLM)): reduces the accumulation of cancer cells at G2/M
Uptake of CDDP into cancer cells (cancer cells [2]): increased uptake of CDDP into cancer cells
Definition of CBP501 sensitivity (NCI-H1155): Insensitive (those that shifted the curve less than two fold were classified as CBP501 insensitive)
Folds increase of CDDP effect by CBP501 (NCI-H1155; [4]): 1.5 fold
Folds increase of CDDP effect by CBP501 (NCI-H1993): 2 fold
Folds increase of CDDP effect by CBP501 (NCI-H23): 4 fold
Folds increase of CDDP effect by CBP501 (NCI-H647): 1.5 fold
Folds increase of CDDP effect by CBP501 (NCI-H1299): 8 fold
Folds increase of CDDP effect by CBP501 (NCI-H358): 1 fold
Definition of CBP501 sensitivity (NCI-H1563): Insensitive (those that shifted the curve less than two fold were classified as CBP501 insensitive)
Folds increase of CDDP effect by CBP501 (NCI-H1563; [4]): 1.5 fold
Definition of CBP501 sensitivity (HCC827): Sensitive (Cell lines that shifted the curve two fold or more were classified as CBP501 sensitive cells)
Folds increase of CDDP effect by CBP501 (HCC827; [4]): 4 fold
Definition of CBP501 sensitivity (NCI-H520): Sensitive (Cell lines that shifted the curve two fold or more were classified as CBP501 sensitive cells)
Folds increase of CDDP effect by CBP501 (NCI-H520; [4]): 2 fold
Definition of CBP501 sensitivity (NCI-H727): Insensitive (those that shifted the curve less than two fold were classified as CBP501 insensitive)
Folds increase of CDDP effect by CBP501 (NCI-H727; [4]): 1 fold
Definition of CBP501 sensitivity (NCI-H1734): Sensitive (Cell lines that shifted the curve two fold or more were classified as CBP501 sensitive cells)
Folds increase of CDDP effect by CBP501 (NCI-H1734; [4]): 2 fold
Definition of CBP501 sensitivity (NCI-H522): Sensitive (Cell lines that shifted the curve two fold or more were classified as CBP501 sensitive cells)
Folds increase of CDDP effect by CBP501 (NCI-H522; [4]): 2 fold
Folds increase of CDDP effect by CBP501 (A549): 2 fold
Definition of CBP501 sensitivity (NCI-H1755): Insensitive (those that shifted the curve less than two fold were classified as CBP501 insensitive)
Folds increase of CDDP effect by CBP501 (NCI-H1755; [4]): 1 fold
Definition of CBP501 sensitivity (NCI-H1975): Sensitive (Cell lines that shifted the curve two fold or more were classified as CBP501 sensitive cells)
Folds increase of CDDP effect by CBP501 (NCI-H1975; [4]): 2 fold
Primary endpoint for efficacy ([3]; MPM): primary endpoint for efficacy was achieved
Clinical activity ([3]; combination of CDDP plus CBP501, patients with platinum-resistant ovarian carcinoma and MPM): showed evidence of clinical activity
